Results taken from patent US8147444B2, “Methods of treating or preventing peritonitis with oxidative reductive potential water solution” (Oculus Innovative Sciences, Inc., priority 2006, dated 2012).
Where two headings read alike, the source gives them in different places. One block for each compound: values may come before it. Bridge positions count the residues as written; N and C are the ends. Square brackets hold non-standard residues; d marks the D form. Peptide text beside a SMILES is read from it. * marks the point of attachment. Ileψ(thiazoline)Cys = CC[C@H](C)[C@H](N)C1=N[C@H](C(=O)*)CS1; dOrn = NCCC[C@@H](N)C(=O)O

Columns and labels:
[1] = system: B. atropheus spores, Pseudomonas aeruginosa, and Staphylococcus aureus; assay: Bacterial suspension assay, test organisms not told apart; assay type: cell-based; settings: Bacitracin 33 Units/ml; over the time periods tested
Procedure: Dermacyn is a ready to use product, therefore performing dilutions during testing was not required.
A purchased spore suspension of B. atropheus at 2.5×10^7/ml was used for testing. In addition fresh suspensions of Pseudomonas aeruginosa, and Staphylococcus aureus were prepared and measured using a spectrophotometer to ensure the titer was acceptable
Nine microliters of test substance was added to 100 ul of microbe suspension. The test mixture was held at 20° C. for the contact times of 20 seconds, 5 minutes, and 20 minutes. […] (entire mixture) was added to 9.0 ml of neutralizer for 20 minutes (this is the original neutralization tube or ONT) 1.0 ml of the neutralized test mixture was plated on Tryptic Soy Agar in duplicate for the 5 minute and 20 minute contact times. Additional dilutions and spread plates were used for the 20 second time point, to achieve countable plates.
All plates were incubated at 30° C.-35° C. for a total of 3 days and were evaluated after each day of incubation.

[2] = system: murine polychromatic erythrocytes
Procedure: The mammalian in vivo micronucleus test is used for the identification of substances which cause damage to chromosomes or the mitotic apparatus of murine polychromatic erythrocytes. This damage results in the formation of “micronuclei,” intracellular structures containing lagging chromosome fragments or isolated whole chromosomes. […] The positive control mice received a single intraperitoneal injection of cyclophosphamide (8 mg/mL, 12.5 ml/kg) on day 2. All mice were observed immediately after injection for any adverse reactions. […] On day 3, all mice were weighed and terminated.
The femurs were excised from the terminated mice, the bone marrow was extracted, and duplicate smear preparations were performed for each mouse. The bone marrow slides for each animal were read at 40× magnification. The ratio of polychromatic erythrocytes (PCE) to normochromatic erythrocytes (NCE), an index of bone marrow toxicity, was determined for each mouse by counting a total of at least 200 erythrocytes. Then a minimum of 2000 scoreable PCE per mouse were evaluated for the incidence of micronucleated polychromatic erythrocytes. Statistical analysis of the data were done using the Mann and Whitney test (at 5% risk threshold) from a statistical software package (Statview 5.0, SAS Institute Inc., USA).

[3] = system: human diploid fibroblasts (HDFs); assay: Cell viability, apoptosis and necrosis by flow cytometry; assay type: cell-based; settings: 880 mM
Procedure: HP is known to be toxic to eukaryotic cells, increasing apoptosis and necrosis and reducing cellular viability. […] HDF cultures were obtained from three different foreskins, which were pooled and cryopreserved together for the purpose of this study. Only diploid cells were used for all experiments. […] Simultaneous analyses of these parameters were performed in the same cell populations by flow cytometry using: […] B) Annexin V-FITC; and C) Propidium iodide. FIG. 4A-4C disclose percentage values expressed as mean±SD (n=3).

primary HDF cultures = settings: human, 1 month, 5 µM

Compound: CC[C@H](C)[C@H](N)C1=N[C@H](C(=O)N[C@@H](CC(C)C)C(=O)N[C@H](CCC(=O)O)C(=O)N[C@H](C(=O)N[C@H]2CCCCNC(=O)[C@H](CC(N)=O)NC(=O)[C@@H](CC(=O)O)NC(=O)[C@H](Cc3cnc[nH]3)NC(=O)[C@@H](Cc3ccccc3)NC(=O)[C@H]([C@@H](C)CC)NC(=O)[C@@H](CCCN)NC2=O)[C@@H](C)CC)CS1 [Bacitracin] ({Ileψ(thiazoline)Cys}-L[dE]IK[dOrn]I[dF]H[dD]N; lactam 4-C)
lowering of bacterial or spore populations [1]: no evidence of lowering the bacterial or spore populations

Compound: O=P1(N(CCCl)CCCl)NCCCO1 (centres unmarked) [cyclophosphamide]
number of polychromatic erythrocytes bearing micronuclei ([2]; females, negative control 1.0): 12.6
PCE/NCE ratio ([2]; females, negative control 1.02): 0.73
number of polychromatic erythrocytes bearing micronuclei ([2]; males, negative control 0.6): 11.0
PCE/NCE ratio ([2]; males, negative control 0.90): 0.77

Cells with SA-β-Gal expression (primary HDF cultures): 86%
Compound: OO [HP, hydrogen peroxide]
Apoptosis, cells exposing Annexin-V ([3]; 5 min): 15%
Apoptosis, cells exposing Annexin-V ([3]; 30 min): 20%
